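Compound exposure: 48 hours, 5 concentrations, 96-well plates. GI50: concentration for 50% inhibition of growth. TGI is the concentration that stops growth completely.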
Columns and labels:
Test in all cases: NCI tumour cell line growth inhibition, 48 h
MOLT-4 leukemia = system: MOLT-4 leukemia
MCF7 breast = system: MCF7 breast
COLO 205 colon = system: COLO 205 colon
HL-60(TB) leukemia = system: HL-60(TB) leukemia
OVCAR-4 ovarian = system: OVCAR-4 ovarian
TK-10 renal = system: TK-10 renal
SK-MEL-2 melanoma = system: SK-MEL-2 melanoma
SK-MEL-28 melanoma = system: SK-MEL-28 melanoma
MALME-3M melanoma = system: MALME-3M melanoma
UACC-257 melanoma = system: UACC-257 melanoma
CCRF-CEM leukemia = system: CCRF-CEM leukemia
786-0 renal = system: 786-0 renal
CAKI-1 renal = system: CAKI-1 renal
ACHN renal = system: ACHN renal
HCT-15 colon = system: HCT-15 colon
HOP-62 NSCLC = system: HOP-62 NSCLC
OVCAR-5 ovarian = system: OVCAR-5 ovarian
NCI/ADR-RES ovarian = system: NCI/ADR-RES ovarian
RXF 393 renal = system: RXF 393 renal
HOP-92 NSCLC = system: HOP-92 NSCLC
RPMI-8226 leukemia = system: RPMI-8226 leukemia
U251 CNS = system: U251 CNS
HCT-116 colon = system: HCT-116 colon
IGROV1 ovarian = system: IGROV1 ovarian
UACC-62 melanoma = system: UACC-62 melanoma
HT29 colon = system: HT29 colon
K-562 leukemia = system: K-562 leukemia
PC-3 prostate = system: PC-3 prostate
SW-620 colon = system: SW-620 colon
NCI-H460 lung = system: NCI-H460 lung
SNB-19 CNS = system: SNB-19 CNS
SF-268 CNS = system: SF-268 CNS
MDA-MB-435 = system: MDA-MB-435
MDA-MB-231 breast = system: MDA-MB-231 breast
SNB-75 CNS = system: SNB-75 CNS
EKVX NSCLC = system: EKVX NSCLC
SR leukemia = system: SR leukemia
DU-145 prostate = system: DU-145 prostate
HS 578T breast = system: HS 578T breast
M14 melanoma = system: M14 melanoma
NCI-H23 lung = system: NCI-H23 lung
LOX IMVI melanoma = system: LOX IMVI melanoma
SN12C renal = system: SN12C renal
OVCAR-3 ovarian = system: OVCAR-3 ovarian
NCI-H226 lung = system: NCI-H226 lung
SK-MEL-5 melanoma = system: SK-MEL-5 melanoma
BT-549 breast = system: BT-549 breast
A498 renal = system: A498 renal
NCI-H522 lung = system: NCI-H522 lung
HCC-2998 colon = system: HCC-2998 colon
SF-295 CNS = system: SF-295 CNS
KM12 colon = system: KM12 colon
T-47D breast = system: T-47D breast
SF-539 CNS = system: SF-539 CNS
SK-OV-3 ovarian = system: SK-OV-3 ovarian
UO-31 renal = system: UO-31 renal
OVCAR-8 ovarian = system: OVCAR-8 ovarian
A549 NSCLC = system: A549 NSCLC

Structure (SMILES): O=C(Nc1cccc(Cl)c1)Nc1nccs1
- GI50 (MOLT-4 leukemia): 21.4 µM
- TGI (MOLT-4 leukemia): 82 µM
- GI50 (MCF7 breast): 7.97 µM
- TGI (MCF7 breast): > 100 µM
- GI50 (COLO 205 colon): 16 µM
- TGI (COLO 205 colon): 32.1 µM
- GI50 (HL-60(TB) leukemia): 28.1 µM
- TGI (HL-60(TB) leukemia): 89.2 µM
- GI50 (OVCAR-4 ovarian): 27.5 µM
- TGI (OVCAR-4 ovarian): > 100 µM
- GI50 (TK-10 renal): 25.8 µM
- TGI (TK-10 renal): 60 µM
- GI50 (SK-MEL-2 melanoma): 24.3 µM
- TGI (SK-MEL-2 melanoma): 52.1 µM
- GI50 (SK-MEL-28 melanoma): 31.8 µM
- TGI (SK-MEL-28 melanoma): > 100 µM
- GI50 (MALME-3M melanoma): 22.7 µM
- TGI (MALME-3M melanoma): 64.7 µM
- GI50 (UACC-257 melanoma): 22.4 µM
- TGI (UACC-257 melanoma): 61.8 µM
- GI50 (CCRF-CEM leukemia): 27 µM
- TGI (CCRF-CEM leukemia): > 100 µM
- GI50 (786-0 renal): 26.6 µM
- TGI (786-0 renal): 63 µM
- GI50 (CAKI-1 renal): 15.6 µM
- TGI (CAKI-1 renal): 43.5 µM
- GI50 (ACHN renal): 30.5 µM
- TGI (ACHN renal): > 100 µM
- GI50 (HCT-15 colon): 20.5 µM
- TGI (HCT-15 colon): > 100 µM
- GI50 (HOP-62 NSCLC): 25.3 µM
- TGI (HOP-62 NSCLC): > 100 µM
- GI50 (OVCAR-5 ovarian): 34.8 µM
- TGI (OVCAR-5 ovarian): > 100 µM
- GI50 (NCI/ADR-RES ovarian): 16.6 µM
- TGI (NCI/ADR-RES ovarian): 58.9 µM
- GI50 (RXF 393 renal): 22.6 µM
- TGI (RXF 393 renal): 49.4 µM
- GI50 (HOP-92 NSCLC): 23.2 µM
- TGI (HOP-92 NSCLC): 65 µM
- GI50 (RPMI-8226 leukemia): 26 µM
- TGI (RPMI-8226 leukemia): 79.3 µM
- GI50 (U251 CNS): 18.2 µM
- TGI (U251 CNS): 50.7 µM
- GI50 (HCT-116 colon): 26.8 µM
- TGI (HCT-116 colon): > 100 µM
- GI50 (IGROV1 ovarian): 16.4 µM
- TGI (IGROV1 ovarian): 70.7 µM
- GI50 (UACC-62 melanoma): 20.4 µM
- TGI (UACC-62 melanoma): 57.4 µM
- GI50 (HT29 colon): 19.7 µM
- TGI (HT29 colon): 46.6 µM
- GI50 (K-562 leukemia): 20.3 µM
- TGI (K-562 leukemia): > 100 µM
- GI50 (PC-3 prostate): 24.6 µM
- TGI (PC-3 prostate): 94.8 µM
- GI50 (SW-620 colon): 26.6 µM
- TGI (SW-620 colon): > 100 µM
- GI50 (NCI-H460 lung): 17.1 µM
- TGI (NCI-H460 lung): 42.4 µM
- GI50 (SNB-19 CNS): 36.6 µM
- TGI (SNB-19 CNS): > 100 µM
- GI50 (SF-268 CNS): 30 µM
- TGI (SF-268 CNS): > 100 µM
- GI50 (MDA-MB-435): 4 µM
- TGI (MDA-MB-435): 27.2 µM
- GI50 (MDA-MB-231 breast): 18 µM
- TGI (MDA-MB-231 breast): 41.8 µM
- GI50 (SNB-75 CNS): 20 µM
- TGI (SNB-75 CNS): 56.1 µM
- GI50 (EKVX NSCLC): 19.8 µM
- TGI (EKVX NSCLC): 69.2 µM
- GI50 (SR leukemia): 13.6 µM
- TGI (SR leukemia): 46.7 µM
- GI50 (DU-145 prostate): 24.1 µM
- TGI (DU-145 prostate): 65.2 µM
- GI50 (HS 578T breast): 15.3 µM
- TGI (HS 578T breast): 43.6 µM
- GI50 (M14 melanoma): 30.2 µM
- TGI (M14 melanoma): > 100 µM
- GI50 (NCI-H23 lung): 19.7 µM
- TGI (NCI-H23 lung): 60.5 µM
- GI50 (LOX IMVI melanoma): 26.9 µM
- TGI (LOX IMVI melanoma): > 100 µM
- GI50 (SN12C renal): 37.1 µM
- TGI (SN12C renal): > 100 µM
- GI50 (OVCAR-3 ovarian): 20.2 µM
- TGI (OVCAR-3 ovarian): 53.6 µM
- GI50 (NCI-H226 lung): 38.7 µM
- TGI (NCI-H226 lung): > 100 µM
- GI50 (SK-MEL-5 melanoma): 15.2 µM
- TGI (SK-MEL-5 melanoma): 30.6 µM
- GI50 (BT-549 breast): 31.6 µM
- TGI (BT-549 breast): > 100 µM
- GI50 (A498 renal): 12.8 µM
- TGI (A498 renal): 47.7 µM
- GI50 (NCI-H522 lung): 13.8 µM
- TGI (NCI-H522 lung): 39.9 µM
- GI50 (HCC-2998 colon): 21.3 µM
- TGI (HCC-2998 colon): 51.2 µM
- GI50 (SF-295 CNS): 15.8 µM
- TGI (SF-295 CNS): 39.5 µM
- GI50 (KM12 colon): 8.5 µM
- TGI (KM12 colon): 37.5 µM
- GI50 (T-47D breast): 12.7 µM
- TGI (T-47D breast): 78 µM
- GI50 (SF-539 CNS): 20.6 µM
- TGI (SF-539 CNS): 61.6 µM
- GI50 (SK-OV-3 ovarian): 20.8 µM
- TGI (SK-OV-3 ovarian): 63.9 µM
- GI50 (UO-31 renal): 17.7 µM
- TGI (UO-31 renal): 53.6 µM
- GI50 (OVCAR-8 ovarian): 25.1 µM
- TGI (OVCAR-8 ovarian): 84.8 µM
- GI50 (A549 NSCLC): 26.5 µM
- TGI (A549 NSCLC): > 100 µM

From PubChem BioAssay (NCI)
